Laboratory results as given in ChEMBL document CHEMBL4680289, “10-(4-Phenylpiperazine-1-carbonyl)acridin-9(10H)-ones and related compounds: Synthesis, antiproliferative activity and inhibition of tubulin polymerization” (Bioorg Med Chem Lett, 2021).
Active and inactive are the calls of the source. The calls are words filed in the database; no cut-off is given here.

Experiments:
K562 [1] = assay: Induction of apoptosis in human K562 cells assessed as early apoptotic cells at 0.1 uM measured after 6 hrs by Annexin V-FITC/7-AAD staining based flow cytometric analysis relative to control; format: functional
K562 [2] = assay: Induction of apoptosis in human K562 cells assessed as late apoptotic cells at 0.01 micromol/L measured after 48 hrs by Annexin V-FITC/7-AAD staining based flow cytometric analysis (reference value: 2.49 %); format: functional; conditions: dose 0.01 µmol/L, at 0.01 µM
K562 [3] = assay: Induction of apoptosis in human K562 cells assessed as early apoptotic cells at 0.01 micromol/L measured after 48 hrs by Annexin V-FITC/7-AAD staining based flow cytometric analysis (reference value: 4.2 %); format: functional; conditions: dose 0.01 µmol/L, at 0.01 µM
K562 [4] = assay: Induction of apoptosis in human K562 cells assessed as early apoptotic cells at 1 micromol/L measured after 48 hrs by Annexin V-FITC/7-AAD staining based flow cytometric analysis (reference value: 4.2 %); format: functional; conditions: dose 1 µmol/L, at 1 µM
K562 [5] = assay: Cell cycle arrest in human K562 cells assessed as increase in cell accumulation at G2/M phase measured after 18 hrs by propidium iodide/RNase FACSCalibur staining based flow cytometry; format: functional; conditions: dose 0.003-1 µmol/L
K562 [6] = assay: Induction of apoptosis in human K562 cells assessed as early apoptotic cells at 0.1 micromol/L measured after 48 hrs by Annexin V-FITC/7-AAD staining based flow cytometric analysis (reference value: 4.2 %); format: functional; conditions: dose 0.1 µmol/L, at 0.1 µM
K562 [7] = assay: Induction of apoptosis in human K562 cells assessed as viable cells at 1 micromol/L measured after 48 hrs by Annexin V-FITC/7-AAD staining based flow cytometric analysis (reference value: 92.85 %); format: functional; conditions: K562, 48 h, dose 1 µmol/L, read-out: Activity
K562 [8] = assay: Induction of apoptosis in human K562 cells assessed as necrotic cells at 0.03 micromol/L measured after 48 hrs by Annexin V-FITC/7-AAD staining based flow cytometric analysis (reference value: 0.46 %); format: functional; conditions: dose 0.03 µmol/L, at 0.03 µM
K562 [9] = assay: Induction of apoptosis in human K562 cells assessed as late apoptotic cells at 0.1 uM measured after 6 hrs by Annexin V-FITC/7-AAD staining based flow cytometric analysis relative to control; format: functional
K562 [10] = assay: Induction of apoptosis in human K562 cells assessed as early apoptotic cells at 0.1 uM measured after 24 hrs by Annexin V-FITC/7-AAD staining based flow cytometric analysis relative to control; format: functional
K562 [11] = assay: Induction of apoptosis in human K562 cells assessed as necrotic cells at 0.1 uM measured after 72 hrs by Annexin V-FITC/7-AAD staining based flow cytometric analysis relative to control; format: functional
K562 [12] = assay: Induction of apoptosis in human K562 cells assessed as necrotic cells at 0.1 micromol/L measured after 48 hrs by Annexin V-FITC/7-AAD staining based flow cytometric analysis (reference value: 0.46 %); format: functional; conditions: dose 0.1 µmol/L, at 0.1 µM
K562 [13] = assay: Induction of apoptosis in human K562 cells assessed as necrotic cells at 0.01 micromol/L measured after 48 hrs by Annexin V-FITC/7-AAD staining based flow cytometric analysis (reference value: 0.46 %); format: functional; conditions: dose 0.01 µmol/L, at 0.01 µM
K562 [14] = assay: Induction of apoptosis in human K562 cells assessed as viable cells at 0.1 uM measured after 6 hrs by Annexin V-FITC/7-AAD staining based flow cytometric analysis relative to control; format: functional; conditions: read-out: Activity
K562 [15] = assay: Induction of apoptosis in human K562 cells assessed as necrotic cells at 1 micromol/L measured after 48 hrs by Annexin V-FITC/7-AAD staining based flow cytometric analysis (reference value: 0.46 %); format: functional; conditions: dose 1 µmol/L, at 1 µM
K562 [16] = assay: Induction of apoptosis in human K562 cells assessed as early apoptotic cells at 0.1 uM measured after 12 hrs by Annexin V-FITC/7-AAD staining based flow cytometric analysis relative to control; format: functional
K562 [17] = assay: Induction of apoptosis in human K562 cells assessed as necrotic cells at 0.1 uM measured after 6 hrs by Annexin V-FITC/7-AAD staining based flow cytometric analysis relative to control; format: functional
K562 [18] = assay: Induction of apoptosis in human K562 cells assessed as early apoptotic cells at 0.3 micromol/L measured after 48 hrs by Annexin V-FITC/7-AAD staining based flow cytometric analysis (reference value: 4.2 %); format: functional; conditions: dose 0.3 µmol/L, at 0.3 µM
K562 [19] = assay: Induction of apoptosis in human K562 cells assessed as necrotic cells at 0.3 micromol/L measured after 48 hrs by Annexin V-FITC/7-AAD staining based flow cytometric analysis (reference value: 0.46 %); format: functional; conditions: dose 0.3 µmol/L, at 0.3 µM
K562 [20] = assay: Induction of apoptosis in human K562 cells assessed as viable cells at 0.1 micromol/L measured after 48 hrs by Annexin V-FITC/7-AAD staining based flow cytometric analysis (reference value: 92.85 %); format: functional; conditions: K562, 48 h, dose 0.1 µmol/L, read-out: Activity
K562 [21] = assay: Induction of apoptosis in human K562 cells assessed as viable cells at 0.1 uM measured after 24 hrs by Annexin V-FITC/7-AAD staining based flow cytometric analysis relative to control; format: functional; conditions: read-out: Activity
K562 [22] = assay: Induction of apoptosis in human K562 cells measured after 48 hrs by Annexin V-FITC/7-AAD staining based flow cytometric analysis; format: functional, cell-based; conditions: dose 0.01-3 µmol/L
K562 [23] = assay: Induction of apoptosis in human K562 cells assessed as necrotic cells at 0.1 uM measured after 12 hrs by Annexin V-FITC/7-AAD staining based flow cytometric analysis relative to control; format: functional
K562 [24] = assay: Induction of apoptosis in human K562 cells assessed as viable cells at 0.3 micromol/L measured after 48 hrs by Annexin V-FITC/7-AAD staining based flow cytometric analysis (reference value: 92.85 %); format: functional; conditions: K562, 48 h, dose 0.3 µmol/L, read-out: Activity
K562 [25] = assay: Induction of apoptosis in human K562 cells assessed as viable cells at 0.1 uM measured after 72 hrs by Annexin V-FITC/7-AAD staining based flow cytometric analysis relative to control; format: functional; conditions: read-out: Activity
K562 [26] = assay: Induction of apoptosis in human K562 cells assessed as late apoptotic cells at 0.1 uM measured after 72 hrs by Annexin V-FITC/7-AAD staining based flow cytometric analysis relative to control; format: functional
K562 [27] = assay: Cell cycle arrest in human K562 cells assessed as increase in cell accumulation at G2/M phase at < 30 nM measured after 18 hrs by propidium iodide/RNase FACSCalibur staining based flow cytometry; format: functional; conditions: dose nM <30, time 18.0 hrs
K562 [28] = assay: Induction of apoptosis in human K562 cells assessed as late apoptotic cells at 0.03 micromol/L measured after 48 hrs by Annexin V-FITC/7-AAD staining based flow cytometric analysis (reference value: 2.49 %); format: functional; conditions: dose 0.03 µmol/L, at 0.03 µM
K562 [29] = assay: Induction of apoptosis in human K562 cells assessed as necrotic cells at 0.1 uM measured after 24 hrs by Annexin V-FITC/7-AAD staining based flow cytometric analysis relative to control; format: functional
K562 [30] = assay: Induction of apoptosis in human K562 cells assessed as viable cells at 0.1 uM measured after 12 hrs by Annexin V-FITC/7-AAD staining based flow cytometric analysis relative to control; format: functional; conditions: read-out: Activity

COc1cc(OC)cc(N2CCN(C(=O)n3c4ccccc4c(=O)c4ccccc43)CC2)c1
Activity (K562 [1]): 4.84% | Activity (K562 [2]): 4.85% | Activity (K562 [3]): 6.24% | Activity (K562 [4]): 27.4% | Activity (K562 [5]): Dose-dependent effect | Activity (K562 [6]): 26.08% | viability at 1 µM (K562 [7]): 41% | Activity (K562 [8]): 0.53% | Activity (K562 [9]): 3.3% | Activity (K562 [10]): 26.44% | Activity (K562 [11]): 4.54% | Activity (K562 [12]): 0.33% | Activity (K562 [13]): 0.27% | viability at 0.1 µM (K562 [14]): 91.6% | Activity (K562 [15]): 0.35% | Activity (K562 [16]): 9.02% | Activity (K562 [17]): 0.24% | Activity (K562 [18]): 24.76% | Activity (K562 [19]): 0.35% | viability at 0.1 µM (K562 [20]): 41.5% | viability at 0.1 µM (K562 [21]): 66.3% | Activity (K562 [22]): Dose-dependent effect | Activity (K562 [23]): 0.29% | viability at 0.3 µM (K562 [24]): 42.6% | viability at 0.1 µM (K562 [25]): 18.2% | Activity (K562 [26]): 65.69% | Activity (K562 [27]): Active | Activity (K562 [28]): 25.72% | Activity (K562 [29]): 0.23% | viability at 0.1 µM (K562 [30]): 87.8%
